Key:
Settings in all cases: incubation time: 72 h
MDA-MB-436 = test: drug sensitivity score (DSS), CellTiter-Blue viability (DSS (AUC-based score)); higher = stronger viability inhibition; extreme values may be limits of the assay
Protocol: (§1)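 DSRT with the CellTiter-Blue (resazurin reduction) viability readout, fluorescence 560/590 nm, 72 h incubation. Plates were normalised to DMSO and benzethonium chloride controls. DSS is computed from the area under the fitted dose-response curve (5 or 9 concentrations).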

CAL-148 = test: as above
Protocol: as §1

MFM-223 = test: as above
Protocol: as §1

CAL-85-1 = test: as above
Protocol: as §1

Hs578T = test: as above
Protocol: as §1

HCC1937 [1] = test: as above
Protocol: as §1

HCC1599 = test: as above
Protocol: as §1

BT-549 = test: as above
Protocol: as §1

HDQ-P1 = test: as above
Protocol: as §1

SK-BR-3 = test: as above
Protocol: as §1

BT-474 = test: as above
Protocol: as §1

CAL-51 = test: as above
Protocol: as §1

DU-4475 = test: as above
Protocol: as §1

CAL-120 [2] = test: as above
Protocol: as §1

MDA-MB-468 = test: as above
Protocol: as §1

MDA-MB-453 = test: as above
Protocol: as §1

MDA-MB-231 = test: as above
Protocol: as §1

HCC1143 = test: as above
Protocol: as §1

HCC1937 [3] = test: drug sensitivity score (DSS), CellTiter-Glo (DSS (AUC-based score)); higher = stronger drug effect (viability inhibition or cytotoxicity); extreme values may be limits of the assay
Procedure, shortened: (§2)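 Plates with 384 wells held compound at 5 concentrations in 10-fold steps over a 10,000-fold range specific to each compound. Breast cancer cell lines were added in 20 µl suspension and incubated 72 h, then read for CellTox Green and CellTiter-Glo signals, with each plate normalised to 0.1 % DMSO and a positive kill control. The drug sensitivity score is based on the area under the fitted dose-response curve.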

CAL-120 [4] = test: as above
Procedure, shortened: as §2

Structure (SMILES)	drug sensitivity score (MDA-MB-436)	drug sensitivity score (CAL-148)	drug sensitivity score (MFM-223)	drug sensitivity score (CAL-85-1)	drug sensitivity score (Hs578T)	drug sensitivity score (HCC1937 [1])	drug sensitivity score (HCC1599)	drug sensitivity score (BT-549)	drug sensitivity score (HDQ-P1)	drug sensitivity score (SK-BR-3)	drug sensitivity score (BT-474)	drug sensitivity score (CAL-51)	drug sensitivity score (DU-4475)	drug sensitivity score (CAL-120 [2])	drug sensitivity score (MDA-MB-468)	drug sensitivity score (MDA-MB-453)	drug sensitivity score (MDA-MB-231)	drug sensitivity score (HCC1143)	drug sensitivity score (HCC1937 [3])	drug sensitivity score (CAL-120 [4])
COc1nc(N)nc2c1ncn2[C@@H]1O[C@H](CO)[C@@H](O)[C@@H]1O [Nelarabine]	0	0	0	0	0	0	0	0	0	0	0	0	0	0	0	0	0	0	0	0
Cc1ccc(Nc2nccc(N(C)c3ccc4c(C)n(C)nc4c3)n2)cc1S(N)(=O)=O [Pazopanib]	4.09	0	11.6	0	0	0	0	3.13	1.38	0	0	0	0	0	0	6.67	0	0	0	0.234
O=C(CCBr)N1CCN(C(=O)CCBr)CC1 [Pipobroman]	0	0	3.19	0	0	0	0	0	0	0	0	0	0	0	0	2.49	0	0	0	0
c1cc(CN2CCCNCCNCCCNCC2)ccc1CN1CCCNCCNCCCNCC1 [Plerixafor]	0	0	0	0	0	0	0	0	0	0	0	0	0	0	0	0	0	0	0	0
C[C@]12C=CC(=O)C=C1CC[C@@H]1[C@@H]2[C@@H](O)C[C@@]2(C)[C@H]1CC[C@]2(O)C(=O)CO [Prednisolone]	0	0	0	0	0	0	0	0	0	0	0	0	0	0	0	4.2	0	0	0	5.1
CC[C@@]1(O)C(=O)OCc2c1cc1n(c2=O)Cc2cc3c(CN(C)C)c(O)ccc3nc2-1 [Topotecan]	6.23	11.5	0	3.4	0	13.2	3.96	4.7	0.903	11.3	0	5.2	11.1	8.72	11.6	3.26	3.58	5.56	6.32	5.11
